According to ChEMBL document CHEMBL4842313, “Combating multi-drug resistant malaria parasite by inhibiting falcipain-2 and heme-polymerization: Artemisinin-peptidyl vinyl phosphonate hybrid molecules as new antimalarials” (Eur J Med Chem, 2021):
Activity calls are given as the source filed them. No cut-off for these calls is given here.

Key:
Falcipain 2 [1] = target: T1, Falcipain 2 (Plasmodium falciparum, UniProt Q9N6S8); assay: Inhibition of recombinant Plasmodium falciparum falcipain-2 expressed in Escherichia coli M15 assessed as reduction in free AMC release using Z-FR-AMC as a substrate measured over 30 mins by fluorometric assay
T1 sequence (Q9N6S8 whole entry): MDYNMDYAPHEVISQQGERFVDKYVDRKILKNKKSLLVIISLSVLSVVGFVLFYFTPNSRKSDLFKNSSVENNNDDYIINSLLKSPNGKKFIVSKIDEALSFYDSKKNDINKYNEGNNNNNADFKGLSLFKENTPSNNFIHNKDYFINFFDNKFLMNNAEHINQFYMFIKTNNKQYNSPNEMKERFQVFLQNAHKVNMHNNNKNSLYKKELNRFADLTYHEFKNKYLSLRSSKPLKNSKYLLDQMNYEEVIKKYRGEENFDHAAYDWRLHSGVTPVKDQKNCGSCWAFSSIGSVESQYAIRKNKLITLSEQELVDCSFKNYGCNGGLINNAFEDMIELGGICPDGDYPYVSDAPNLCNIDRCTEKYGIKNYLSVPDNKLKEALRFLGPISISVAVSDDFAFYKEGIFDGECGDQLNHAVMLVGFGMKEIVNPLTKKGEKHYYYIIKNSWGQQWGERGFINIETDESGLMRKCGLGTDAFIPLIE

Falcipain 2 [2] = target: T1, Falcipain 2; assay: Inhibition of recombinant Plasmodium falciparum falcipain-2 expressed in Escherichia coli M15 assessed as reduction in free AMC release using Z-FR-AMC as a substrate measured over 30 mins by Cheng-prusoff equation analysis
Plasmodium falciparum [3] = assay: Antimalarial activity against asexual blood stage of Plasmodium falciparum assessed as darkly stained dead parasites at EC50 observed at 60 hrs post invasion; type: functional, organism-based
Plasmodium berghei [4] = assay: Antimalarial activity against blood stage of Plasmodium berghei infected in BALB/c mouse assessed as suppression of parasite growth at 12.5 mg/kg, ip administered once daily for 4 consecutive days measured on day 5 by Giemsa staining based assay; type: functional, organism-based; conditions: time 5.0 day
Plasmodium falciparum [5] = assay: Antimalarial activity against laboratory adapted artemisinin-resistant Plasmodium falciparum RT4974 assessed as inhibition of the survival of ring-stage parasite measured after 66 hrs by ring survival assay; type: functional, organism-based
Plasmodium falciparum [6] = assay: Antimalarial activity against asexual blood stage of Plasmodium falciparum assessed as abnormalities in food vacuole observed upto 60 hrs post invasion; type: functional, organism-based; conditions: time hrs <=60
Plasmodium berghei [7] = assay: Antimalarial activity against blood stage of Plasmodium berghei infected in BALB/c mouse assessed as mouse survival time at 12.5 mg/kg, ip administered once daily for 4 consecutive days (reference value: 12 to 15 days); type: functional; conditions: time 4 day
[8] = target: T2, Heme ligase (Plasmodium falciparum (isolate 3D7)) (UniProt Q8IL04); assay: Inhibition of recombinant Plasmodium falciparum heme detoxification protein expressed in Escherichia coli M15 assessed as reduction in hemozoin formation using heme as substrate measured after 3 hrs relative to control; conditions: concentration not given here
T2 sequence (whole entry): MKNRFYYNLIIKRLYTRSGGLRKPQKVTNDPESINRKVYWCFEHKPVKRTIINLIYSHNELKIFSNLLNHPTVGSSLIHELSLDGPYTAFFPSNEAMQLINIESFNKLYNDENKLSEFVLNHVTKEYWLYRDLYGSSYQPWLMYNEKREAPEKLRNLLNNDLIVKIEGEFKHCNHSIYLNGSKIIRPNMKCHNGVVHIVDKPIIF

Plasmodium falciparum [9] = assay: Antimalarial activity against chloroquine and pyrimethamine-resistant Plasmodium falciparum 7G8 assessed as parasite growth inhibition incubated for 48 hrs by SYBR green DNA fluorescent dye-binding assay; type: functional, organism-based; conditions: 7G8, 48 h
Plasmodium berghei [10] = assay: Antimalarial activity against blood stage of Plasmodium berghei infected in BALB/c mouse assessed as suppression of parasite growth at 12.5 mg/kg, ip administered once daily for 4 consecutive days measured on day 6 by Giemsa staining based assay; type: functional, organism-based; conditions: time 6.0 day
Plasmodium falciparum [11] = assay: Antimalarial activity against chloroquine, pyrimethamine and mefloquine-resistant Plasmodium falciparum Dd2 assessed as parasite growth inhibition incubated for 48 hrs by SYBR green DNA fluorescent dye-binding assay; type: functional, organism-based; conditions: Dd2, 48 h
Plasmodium falciparum [12] = assay: Antimalarial activity against Plasmodium falciparum 3D7 assessed as parasite growth inhibition incubated for 48 hrs by SYBR green DNA fluorescent dye-binding assay; type: functional, organism-based; conditions: 3D7, 48 h
Plasmodium falciparum [13] = assay: Antimalarial activity against asexual blood stage of Plasmodium falciparum assessed as inhibition of mature schizonts development at EC50 observed at 48 hrs post invasion; type: functional, organism-based
A549 = assay: Cytotoxicity against human A549 cells assessed as reduction in cell viability measured after 24 hrs by WST-1 assay; type: cell-based; conditions: A549, 24 h
[14] = Drug degradation in human plasma; type: ADME, cell-free
Plasmodium berghei [15] = assay: Antimalarial activity against blood stage of Plasmodium berghei infected in BALB/c mouse assessed as parasite clearance at 12.5 mg/kg, ip administered once daily for 4 consecutive days measured on day 10 by Giemsa staining based assay (reference value: 0%); type: functional; conditions: time 10 day
Cytochrome P450 = assay: Inhibition of CYP450 (unknown origin); type: ADME, protein assay; conditions: human

Row | SMILES | IC50 (Falcipain 2 [1]) [nM] | Ki (Falcipain 2 [2]) | EC50 (Plasmodium falciparum [12]) [nM] | further results
1 | COC(=O)[C@H](CO[C@H]1O[C@@H]2O[C@@]3(C)CC[C@H]4[C@H](C)CC[C@@H]([C@H]1C)[C@@]24OO3)NC(=O)OCc1ccccc1 | > 100000 | Not Active | – | –
2 | CCOP(=O)(/C=C/C(NC(=O)[C@H](CC(C)C)NC(=O)[C@H](CO[C@H]1O[C@@H]2O[C@@]3(C)CC[C@H]4[C@H](C)CC[C@@H]([C@H]1C)[C@@]24OO3)NC(=O)OCc1ccccc1)c1ccccc1)OCC (stereo partly drawn) | – | – | 3.3 | Activity (Plasmodium falciparum [3]): Active; Activity (Plasmodium berghei [4]): inactive; Activity (Plasmodium falciparum [5]): Active; Activity (Plasmodium falciparum [6]): Active; Survival (Plasmodium berghei [7]): >60 days; inhibition [8]: 60%; EC50 (Plasmodium falciparum [9]): 0.23 nM; Activity (Plasmodium berghei [10]): Active; EC50 (Plasmodium falciparum [11]): 3.5 nM; Activity (Plasmodium falciparum [13]): Active; EC50 (A549): 3820 nM; Stabilty [14]: Unstable; Activity (Plasmodium berghei [15]): 100%; inhibition (INH) (Cytochrome P450): Active
3 | C[C@H]1[C@@H](O)O[C@@H]2O[C@@]3(C)CC[C@H]4[C@H](C)CC[C@@H]1[C@@]24OO3 [ARTENIMOL] | > 100000 | Not Active | 4.97 | EC50 (A549): > 25000 nM
4 | CCOP(=O)(/C=C/[C@@H](NC(=O)[C@H](Cc1ccccc1)NC(=O)[C@H](CO[C@H]1O[C@@H]2O[C@@]3(C)CC[C@H]4[C@H](C)CC[C@@H]([C@H]1C)[C@@]24OO3)NC(=O)OCc1ccccc1)c1ccccc1)OCC | – | – | 0.95 | –
5 | COC(=O)[C@H](Cc1ccccc1)NC(=O)[C@H](CO[C@H]1O[C@@H]2O[C@@]3(C)CC[C@H]4[C@H](C)CC[C@@H]([C@H]1C)[C@@]24OO3)NC(=O)OCc1ccccc1 | > 100000 | Not Active | – | –
6 | COC(=O)[C@H](CC(C)C)NC(=O)[C@H](CO[C@H]1O[C@@H]2O[C@@]3(C)CC[C@H]4[C@H](C)CC[C@@H]([C@H]1C)[C@@]24OO3)NC(=O)OCc1ccccc1 | > 100000 | Not Active | – | –
7 | CCOP(=O)(/C=C/C(NC(=O)[C@H](CO[C@H]1O[C@@H]2O[C@@]3(C)CC[C@H]4[C@H](C)CC[C@@H]([C@H]1C)[C@@]24OO3)NC(=O)OCc1ccccc1)c1ccccc1)OCC (stereo partly drawn) | > 100000 | Not Active | – | –
8 | CCOP(=O)(/C=C/C(NC(=O)[C@H](Cc1ccccc1)NC(=O)[C@@H]1C[C@@H](O[C@H]2O[C@@H]3O[C@@]4(C)CC[C@H]5[C@H](C)CC[C@@H]([C@H]2C)[C@@]35OO4)CN1C(=O)OCc1ccccc1)c1ccccc1)OCC (stereo partly drawn) | > 100000 | Not Active | – | –
9 | CCOP(=O)(/C=C/C(NC(=O)[C@H](CC(C)C)NC(=O)[C@@H]1C[C@@H](O[C@H]2O[C@@H]3O[C@@]4(C)CC[C@H]5[C@H](C)CC[C@@H]([C@H]2C)[C@@]35OO4)CN1C(=O)OCc1ccccc1)c1ccccc1)OCC (stereo partly drawn) | – | – | 2.57 | Activity (Plasmodium falciparum [3]): Active; Activity (Plasmodium berghei [4]): inactive; Activity (Plasmodium falciparum [5]): Active; Activity (Plasmodium falciparum [6]): Active; Survival (Plasmodium berghei [7]): >60 days; inhibition [8]: 90%; EC50 (Plasmodium falciparum [9]): 1.2 nM; Activity (Plasmodium berghei [10]): Active; EC50 (Plasmodium falciparum [11]): 5.5 nM; Activity (Plasmodium falciparum [13]): Active; EC50 (A549): 1280 nM; Stabilty [14]: Unstable; Activity (Plasmodium berghei [15]): 100%; inhibition (INH) (Cytochrome P450): Active
10 | CCOP(=O)(/C=C/[C@@H](NC(=O)[C@H](CC(C)C)NC(=O)[C@@H]1C[C@@H](O[C@H]2O[C@@H]3O[C@@]4(C)CC[C@H]5[C@H](C)CC[C@@H]([C@H]2C)[C@@]35OO4)CN1C(=O)OCc1ccccc1)c1ccccc1)OCC | – | – | 1.04 | –
11 | COC(=O)[C@H](CC(C)C)NC(=O)[C@@H]1C[C@@H](O[C@H]2O[C@@H]3O[C@@]4(C)CC[C@H]5[C@H](C)CC[C@@H]([C@H]2C)[C@@]35OO4)CN1C(=O)OCc1ccccc1 | > 100000 | Not Active | – | –
12 | CCOP(=O)(/C=C/[C@H](NC(=O)[C@H](CC(C)C)NC(=O)[C@@H]1C[C@@H](O[C@H]2O[C@@H]3O[C@@]4(C)CC[C@H]5[C@H](C)CC[C@@H]([C@H]2C)[C@@]35OO4)CN1C(=O)OCc1ccccc1)c1ccccc1)OCC | – | Not Active | 6.12 | –
13 | COC(=O)[C@@H]1C[C@@H](O[C@H]2O[C@@H]3O[C@@]4(C)CC[C@H]5[C@H](C)CC[C@@H]([C@H]2C)[C@@]35OO4)CN1C(=O)OCc1ccccc1 | > 100000 | Not Active | – | –
14 | CCOP(=O)(/C=C/C(NC(=O)[C@@H]1C[C@@H](O[C@H]2O[C@@H]3O[C@@]4(C)CC[C@H]5[C@H](C)CC[C@@H]([C@H]2C)[C@@]35OO4)CN1C(=O)OCc1ccccc1)c1ccccc1)OCC (stereo partly drawn) | > 100000 | Not Active | – | –
15 | C[C@@H]1CC[C@H]2[C@@H](C)C(=O)O[C@@H]3O[C@@]4(C)CC[C@@H]1[C@]32OO4 [ARTEMISININ] | – | – | 27 | Survival (Plasmodium berghei [7]): 15 days; EC50 (Plasmodium falciparum [9]): 18 nM; EC50 (Plasmodium falciparum [11]): 15 nM; Activity (Plasmodium berghei [15]): 0%
16 | CCOP(=O)(/C=C/[C@@H](NC(=O)[C@H](CC(C)C)NC(=O)[C@H](CO[C@H]1O[C@@H]2O[C@@]3(C)CC[C@H]4[C@H](C)CC[C@@H]([C@H]1C)[C@@]24OO3)NC(=O)OCc1ccccc1)c1ccccc1)OCC | – | – | 10.9 | –
17 | COC(=O)[C@H](Cc1ccccc1)NC(=O)[C@@H]1C[C@@H](O[C@H]2O[C@@H]3O[C@@]4(C)CC[C@H]5[C@H](C)CC[C@@H]([C@H]2C)[C@@]35OO4)CN1C(=O)OCc1ccccc1 | > 100000 | Not Active | – | –
18 | CCOP(=O)(/C=C/[C@H](NC(=O)[C@H](CC(C)C)NC(=O)[C@H](CO[C@H]1O[C@@H]2O[C@@]3(C)CC[C@H]4[C@H](C)CC[C@@H]([C@H]1C)[C@@]24OO3)NC(=O)OCc1ccccc1)c1ccccc1)OCC | – | – | 16.7 | –
19 | CCOP(=O)(/C=C/[C@H](NC(=O)[C@H](Cc1ccccc1)NC(=O)[C@H](CO[C@H]1O[C@@H]2O[C@@]3(C)CC[C@H]4[C@H](C)CC[C@@H]([C@H]1C)[C@@]24OO3)NC(=O)OCc1ccccc1)c1ccccc1)OCC | – | – | 2.03 | –
20 | CCOP(=O)(/C=C/C(N)c1ccccc1)OCC (stereo not drawn) | > 25000 | Not Active | > 100000 | EC50 (A549): > 30000 nM
